{
  "source": "patent EP4803083A1",
  "about": "“USE OF PYRROLOTRIAZINE COMPOUND IN PREPARATION OF DRUG FOR PREVENTING AND/OR TREATING FIBROSIS OR RELATED DISEASE THEREOF” (Jumbo Drug Bank Co., Ltd., priority 2023, dated 2025)",
  "key": {"[1]": {"system": "bleomycin-induced mouse pulmonary fibrosis model", "experiment": "Bleomycin-induced pulmonary fibrosis model: lung inflammation scoring (HE staining, Szapiel Score)", "assay_type": "in vivo, C57BL/6 mice", "settings": "high-dose group (50 mg/kg); endpoint 28 days; compared with the vehicle treatment group; p value<0.05", "protocol": "(§1) Experimental preparation: C57BL/6 mice, 8-10 weeks old, female, body weight approximately 18-22 g. Bleomycin. 1% sodium pentobarbital, sterile normal saline, insulin syringe.\n(§2) Drug: p-toluenesulfonate salt of Compound 12 (10 mg/mL). The specific drug preparation method was as follows: 282.87 mg of the p-toluenesulfonate salt powder of Compound 12 was weighed and mixed with 1.050 mL of DMSO solution (preheated to 45°C). The mixture was placed in an ultrasonic water bath until completely dissolved. Subsequently, 19.95 mL of mixed solvent (comprising 1.995 mL of Solutol, 1.995 g of hydroxypropyl-β-cyclodextrin, and 15.96 mL water ) was added. The resulting mixture was sonicated again until completely dissolved to obtain a working solution with a concentration of 10 mg/mL. 1. After the mice begin to adapt to the environment, the experiment is started. The experimental animals are divided into five groups: normal control group, model group (Bleomycin group), low-dose treatment group (25 mg/kg), high-dose treatment group (50 mg/kg), and vehicle treatment group. […]\n(§3) 5. […] According to the time point, the mice were euthanized and samples were collected for subsequent experiments; the day of modeling is recorded as day 1. […]"}, "[2]": {"system": "bleomycin-induced mouse pulmonary fibrosis model", "experiment": "Bleomycin-induced pulmonary fibrosis model: lung fibrosis grading score (Masson staining, Ashcroft Score)", "assay_type": "in vivo, C57BL/6 mice", "settings": "endpoint 28 days, compared with the vehicle-treated group, p value <0.05", "protocol": "as §1, §2, §3"}, "Liver spheroids [3]": {"system": "Liver spheroids", "experiment": "In vitro 3D liver NASH model: TG detection", "assay_type": "cell-based, human", "settings": "60 nM; Day 10; compared with the NASH group; p<0.05", "protocol": "(§4) Four types of human primary cells were used for modeling, including human primary hepatocytes (PHH), human primary liver sinusoidal endothelial cells (LSEC), human primary hepatic stellate cells (HSC), and human primary Kupffer cells (KC). The total number of cells in each model was 3000.\n(§5) The cell connector NAC-Linker A was mixed with hepatocytes and incubated at room temperature for 30 minutes so that NAC-Linker A was fixed on the cell membrane surface. At the same time, the cell connector NAC-Linker B was mixed with the mixture of intrahepatic non-parenchymal cells and incubated at room temperature for 30 minutes so that NAC-Linker B was fixed on the cell membrane surface; (2) after incubation, the hepatocytes carrying NAC-Linker A and the intrahepatic non-parenchymal cells carrying NAC-Linker B were mixed evenly, and 20-30 µl droplets were prepared on the lid of a culture plate using a pipette. PBS solution and liver physiological culture medium (Puheng Biomedicine (Shanghai) Co., Ltd., liver physiological culture medium (human), catalog No. M0001) were added to the wells of the culture plate. The prepared culture plate lid was inverted and placed onto the culture plate to form hanging drops. The culture plate with hanging drops was placed upside down in a 37°C incubator for 12-24 hours. […]"}, "IL-6": {"system": "IL-6", "experiment": "In vitro 3D liver NASH model: cytokine detection (IL-6)", "assay_type": "cell-based, human", "settings": "60 nM; culture medium supernatant; compared with the NASH group; significant difference p<0.05", "protocol": "as §4\nas §5, with “drops.” for “drops. The culture plate with hanging drops was placed upside down in a 37°C incubator for 12-24 hours.”\nThe culture medium supernatant was collected and tested using an IL-6 detection kit according to the manufacturer's instructions, with measurement performed using a microplate reader."}, "Liver spheroids [4]": {"system": "Liver spheroids", "experiment": "In vitro 3D liver NASH model: H&E staining", "assay_type": "cell-based, human", "settings": "compared with the NASH group", "protocol": "as §4\n(§6) The cell connector NAC-Linker A was mixed with hepatocytes and incubated at room temperature for 30 minutes so that NAC-Linker A was fixed on the cell membrane surface. At the same time, the cell connector NAC-Linker B was mixed with the mixture of intrahepatic non-parenchymal cells and incubated at room temperature for 30 minutes so that NAC-Linker B was fixed on the cell membrane surface; (2) after incubation, the hepatocytes carrying NAC-Linker A and the intrahepatic non-parenchymal cells carrying NAC-Linker B were mixed evenly, and 20-30 µl droplets were prepared on the lid of a culture plate using a pipette. PBS solution and liver physiological culture medium (Puheng Biomedicine (Shanghai) Co., Ltd., liver physiological culture medium (human), catalog No. M0001) were added to the wells of the culture plate. The prepared culture plate lid was inverted and placed onto the culture plate to form hanging drops. The culture plate with hanging drops was placed upside down in a 37°C incubator for 12-24 hours. Under the curvature of the lower surface of the hanging drops and gravity, complementary DNA pairing in the NAC-Linker formed connections to generate a 3D liver organoid structure.\n(§7) After successful modeling on Day 0, the samples were divided into 5 groups according to different treatments, with 9 samples in each group. […]\nUsing ImageJ software, the steatotic area on the slides after H&E staining was quantified, and the ratio of the steatotic area to the total area of each slide was calculated (results are shown in Figure 6)."}, "Liver spheroids [5]": {"system": "Liver spheroids", "experiment": "In vitro 3D liver NASH model: Sirius Red staining", "assay_type": "cell-based, human", "settings": "for Sirius Red staining: fibrosis area in the liver spheroids: compared with the NASH group", "protocol": "as §4, §6, §7\nUsing ImageJ software, the fibrosis area on the slides after Sirius Red staining was quantified, and the ratio of the fibrosis area to the total area of each slide was calculated (Figure 7)."}, "COL1 and α-SMA": {"system": "COL1 and α-SMA", "experiment": "In vitro 3D liver NASH model: COL1 and α-SMA immunofluorescence staining", "assay_type": "cell-based, human", "settings": "10 nM, 30 nM and 60 nM groups", "protocol": "as §4\nas §5, with “plate.” for “plate. The prepared culture plate lid was inverted and placed onto the culture plate to form hanging drops. The culture plate with hanging drops was placed upside down in a 37°C incubator for 12-24 hours.”\nLiver spheroids were paraffin-embedded and sectioned, subjected to immunofluorescence staining, mounted, and photographed under a fluorescence microscope, and the results are shown in Figure 5"}},
  "data": [
    {"compound": "Cc1cc(Nc2ncnn3cc(OCCN4CCC(F)(F)C4)c(C)c23)c(=O)n2c1C(=O)NC21CCCC1", "note": "[Compound 12 p-toluenesulfonate]", "values": [
      {"measurement": "Szapiel Score of lung tissue fibrosis", "setting": "[1]", "value": "significantly lower score"},
      {"measurement": "Ashcroft Scores of lung tissue fibrosis", "setting": "[2]; high-dose group (50 mg/kg)", "value": "significantly lower scores"},
      {"measurement": "Ashcroft Scores of lung tissue fibrosis", "setting": "[2]; low-dose group (25 mg/kg)", "value": "significantly lower scores"},
      {"measurement": "TG level", "setting": "Liver spheroids [3]", "value": "significant difference"},
      {"measurement": "inflammatory cytokine level (IL-6)", "setting": "IL-6", "value": "improved"},
      {"measurement": "H&E staining: hepatocyte steatosis and ballooning degeneration", "setting": "Liver spheroids [4]; 10 nM", "value": "improvement in hepatocyte steatosis and ballooning degeneration"},
      {"measurement": "H&E staining: hepatocyte steatosis and ballooning degeneration", "setting": "Liver spheroids [4]; 30 nM", "value": "significant histological improvement"},
      {"measurement": "H&E staining: hepatocyte steatosis and ballooning degeneration", "setting": "Liver spheroids [4]; 60 nM", "value": "significant histological improvement"},
      {"measurement": "Sirius Red staining: degree of liver fibrosis", "setting": "Liver spheroids [5]; 10 nM, compared with the normal control group (so in the source)", "value": "trend of improvement"},
      {"measurement": "Sirius Red staining: fibrosis area in the liver spheroids", "setting": "Liver spheroids [5]; 30 nM", "value": "significant differences"},
      {"measurement": "Sirius Red staining: fibrosis area in the liver spheroids", "setting": "Liver spheroids [5]; 60 nM", "value": "significant differences"},
      {"measurement": "COL1 and α-SMA immunofluorescence staining", "setting": "COL1 and α-SMA", "value": "therapeutic effect on liver fibrosis and exhibits dose dependence"}
    ]}
  ]
}
